Residues, ends and D or L forms follow the SMILES beside them. No end group written: not given here.

Series [1] can be described thus: Organic cleavage conditions: diketopiperazine formation and disappearance of starting peptide, reverse phase chromatography. In kind it is physicochemical. From the text:
[…] A molecular sieves for one week. […] The rate of cleavage was monitored by appearance of methionyl-proline diketopiperazine formation and disappearance of starting peptide as measured in reverse phase chromatographic analysis. Chromatography was achieved using a 0.46×25 cm column of Ultrosphere C18 in 0.1% trifluoroacetic acid (TFA), using an acetonitrile gradient to effect elution. The reaction was stopped at each analysis time point by ten-fold dilution with 0.1% trifluoroacetic acid. The diketopiperazine peak was collected and its identity confirmed by amino acid and mass spectral analysis.

Series [2] can be described thus: Protein stability under organic cleavage conditions, reverse phase HPLC. Particulars: 40° C.; for Protein Stability, relative percent remaining: against an untreated external control.
Experimental: Analysis of the products obtained via the foregoing cleavage methods upon a representative sampling of peptides and proteins was assessed by high performance anion exchange and reverse phase chromatography. Anion exchange chromatography was conducted on a Mono Q column in a 0.05M Tris, pH 8.0 buffer containing 30% acetonitrile. Elution was provided using a linear gradient of sodium chloride. Reverse phase analysis was performed on a Zorbax C8, 150Å pore size column using an acetonitrile gradient in 0.1M ammonium phosphate at 45° C., pH 7.0.
Series [3] can be described thus: Protein stability under organic cleavage conditions, anion exchange HPLC. Particulars: 40° C. In kind it is physicochemical.
Experimental: Anion exchange chromatography was conducted on a Mono Q column in a 0.05M Tris, pH 8.0 buffer containing 30% acetonitrile. Elution was provided using a linear gradient of sodium chloride. Reverse phase analysis was performed on a Zorbax C8, 150Å pore size column using an acetonitrile gradient in 0.1M ammonium phosphate at 45° C., pH 7.0.

As to `CSCC[C@H](N)C(=O)N1CCC[C@H]1C(=O)NCC(=O)NCC(N)=O` [Met--Pro--Gly--Gly--NH2] (H-MPGG-NH2), the “quantity of starting material remaining” value in series [1] (1 M HOAc/CH2 Cl2, 25° C., 0 h) turned out to be 100%; in series [1] (1 M HOAc/CH2 Cl2, 25° C., 2 h) it was 104%; in series [1] (1 M HOAc/CH2 Cl2, 25° C., 4 h) it was 96%; in series [1] (1 M HOAc/CH2 Cl2, 25° C., 6 h), 99%; in series [1] (1 M HOAc/CH2 Cl2, 25° C., 24 h), 80%; in series [1] (1 M HOAc/CH3 CN, 25° C., 0 h), 100%. The “quantity of starting material remaining” value in series [1] (1 M HOAc/CH3 CN, 25° C., 2 h) is recorded as 114%; in series [1] (1 M HOAc/CH3 CN, 25° C., 4 h), 105%; in series [1] (1 M HOAc/CH3 CN, 25° C., 6 h), 99%; in series [1] (1 M HOAc/CH3 CN, 25° C., 24 h) it was 66%; in series [1] (1 M HOAc/DMF, 25° C., 0 h), 100%; in series [1] (1 M HOAc/DMF, 25° C., 2 h), 88%. The “quantity of starting material remaining” value in series [1] (1 M HOAc/DMF, 25° C., 4 h) is 71%; in series [1] (1 M HOAc/DMF, 25° C., 6 h), 57%; in series [1] (1 M HOAc/DMF, 25° C., 24 h), 11%; in series [1] (1 M HOAc/DMSO, determined at 40° C., 0 h), 100%; in series [1] (1 M HOAc/DMSO, determined at 40° C., 2 h), 73%; in series [1] (1 M HOAc/DMSO, determined at 40° C., 4 h), 56%. In addition, the “quantity of starting material remaining” value in series [1] (1 M HOAc/DMSO, determined at 40° C., 24 h) is 6%; in series [1] (1 M HOAc/MeOH, 25° C., 0 h), 100%; in series [1] (1 M HOAc/MeOH, 25° C., 2 h), 101%; in series [1] (1 M HOAc/MeOH, 25° C., 4 h), 99%; in series [1] (1 M HOAc/MeOH, 25° C., 6 h) it was 99%; in series [1] (1 M HOAc/MeOH, 25° C., 24 h), 97%. For the same molecule, the “quantity of starting material remaining” value worked out at 100% in series [1] (1 M HOAc/nPrOH, 25° C., 2 h); 97% in series [1] (1 M HOAc/nPrOH, 25° C., 4 h); 94% in series [1] (1 M HOAc/nPrOH, 25° C., 6 h); 72% in series [1] (1 M HOAc/nPrOH, 25° C., 24 h).
Take “APLEPEYPGDNATPEQMAQYAAELRRYINMLTRPRY-NH2 [bPP, bovine pancreatic polypeptide, reference compound]”: the “Protein Stability, relative percent remaining” value came out at 42% in series [2] (1 M HOAc/DMF, 2 h); 40% in series [2] (1 M HOAc/DMF, 24 h); 32% in series [2] (1 M HOAc/DMF, 48 h); 52% in series [2] (1 M HOAc/DMSO, 2 h); 90% in series [2] (1 M HOAc/DMSO, 24 h); 86% in series [2] (1 M HOAc/DMSO, 48 h).
Take Proinsulin: the “Protein Stability, relative percent remaining” value is given as 86% in series [2] (1 M HOAc/DMF, 2 h); 43% in series [2] (1 M HOAc/DMF, 24 h); 30% in series [2] (1 M HOAc/DMF, 48 h); 97% in series [2] (1 M HOAc/DMSO, 2 h); 70% in series [2] (1 M HOAc/DMSO, 24 h); 86% in series [2] (1 M HOAc/DMSO, 48 h).
As to “insulin Achain Ssulfonate [A(SO3^- )4, reference compound]”, the “Protein Stability, relative percent remaining” value in series [2] (1 M HOAc/DMF, 2 h) turned out to be 100%; in series [2] (1 M HOAc/DMF, 24 h), 58%; in series [2] (1 M HOAc/DMSO, 2 h) it was 100%; in series [2] (1 M HOAc/DMSO, 24 h) it was 100%; in series [2] (1 M HOAc/DMSO, 48 h), 96%.
With “insulin Bchain Ssulfonate [B(SO3^- )2, reference compound]”, the “Protein Stability, relative percent remaining” value in series [2] (1 M HOAc/DMF, 2 h) is given as 97%; in series [2] (1 M HOAc/DMF, 24 h) it was 62%; in series [2] (1 M HOAc/DMSO, 2 h) it was 94%; in series [2] (1 M HOAc/DMSO, 24 h), 106%.
For methionyl human growth hormone, the “Stability, determined by reverse phase HPLC” value in series [2] (0.33 M HOAc/DMF, 2 h) is reported as 78; in series [2] (0.33 M HOAc/DMF, 4 h), 65; in series [2] (0.33 M HOAc/DMF, 24 h), 45; in series [2] (0.33 M HOAc/DMSO, 2 h), 91; in series [2] (0.33 M HOAc/DMSO, 4 h) it was 77; in series [2] (0.33 M HOAc/DMSO, 24 h), 75. Besides, the “Stability, determined by reverse phase HPLC” value in series [2] (0.33 M HOAc/NMP, 2 h) stood at 85; in series [2] (0.33 M HOAc/NMP, 4 h) it was 70; in series [2] (0.33 M HOAc/NMP, 24 h), 77. The “Stability, determined by anion exchange HPLC” value in series [3] (0.33 M HOAc/DMF, 2 h) is 78; in series [3] (0.33 M HOAc/DMF, 4 h), 68; in series [3] (0.33 M HOAc/DMF, 24 h) it was 34; in series [3] (0.33 M HOAc/DMSO, 2 h), 100; in series [3] (0.33 M HOAc/DMSO, 4 h) it was 99; in series [3] (0.33 M HOAc/DMSO, 24 h) it was 86. The “Stability, determined by anion exchange HPLC” value in series [3] (0.33 M HOAc/NMP, 2 h) was determined as 90; in series [3] (0.33 M HOAc/NMP, 4 h) it was 89; in series [3] (0.33 M HOAc/NMP, 24 h), 75.

(Values after patent US4782139A, “Selective chemical removal of a protein amino-terminal residue” (Eli Lilly and Company, priority 1986, dated 1988).)
